Reference: patent publication US20230301993A1, “Low-Dose Ophthalmic Compositions and Methods” (priority 2020, published 2023)
Entries after “also recorded” stand apart in the source; their conditions may differ.

Legend:
rabbit eye model [1] = test: Pupillometry: effect of single topical ocular administration on pupillary diameter (miotic effect) in rabbit eye model; format: in vivo, Dutch Belted Rabbits
Description: The following examples were performed to determine which active pharmaceutical agent (API), alone or in combination, could effect upon topical administration an approximate 1-2 mm decrease in pupillary diameter with a desirable (e.g., about 4 h) duration of action. Unless stated otherwise, a rabbit animal model was used for the studies. Phentolamine was used as a positive control (comparator API) and caused an approximately 1 mm decrease in the pupil at 0.5% and 1% with a duration of more than 6 hours.
Study design: 3 Dutch Belted Rabbits (pigmented breed)/group received a single ocular administration of test articles (one drop per eye) at 3 concentrations (tested one week apart). After a 2-week rest period, combinations were tested. Ocular irritation was assessed using a modified Draize test. Intraocular pressure (IOP) was measured at baseline, 1 h, 4 h, 6 h and 24 hours. Pupillary Diameter was measured at baseline, 15 min, 1 h, 4 h and 6 h after dosing. Due to the variation in pupillary diameter and IOP between rabbits and between eyes within rabbits, the data for pupillary diameter and IOP were normalized and presented with error bars (SD). A change of 15% to 20% approximates a pupillary diameter change of 1 mm. […]

rabbit eye model [2] = test: Effect of benzalkonium chloride on the miotic effect of carbachol; format: in vivo
Text: In still further experiments, the inventors investigated the effect of benzalkonium chloride on the miotic effect of carbachol. To that end, different concentrations of BAC were employed between 0.005% and 0.02% at carbachol concentrations between 0.025% and 0.075%, and the results are shown in FIGS. 6A-6C. […] As BAK is believed to increase permeability of the respective agents across the corneal tissue, addition of BAK at concentrations up to 0.05% may advantageously increase miotic effect at otherwise identical drug concentration. Thus, BAK may enhance the miotic action of brimonidine, rivastigmine, galantamine, and carbachol, which may in turn allow for reduced drug concentrations and/or increased miotic effect without unduly extending the duration of the miotic effect.

CCN(C)C(=O)Oc1cccc(C(C)N(C)C)c1 (stereo not drawn) [Rivastigmine, N-ethyl-3-[1-dimethylamino)ethyl]-N-methylphenyl carbamate]
decrease in pupil (rabbit eye model [1]; concentration of about 1%, alone, rabbit): 1 mm | miotic effect on pupillary diameter (comparison in words) (rabbit eye model [1]; concentration of about 1%, alone, rabbit (FIG. 3A)): substantially similar to phentolamine

C[N+](C)(C)CCOC(N)=O [carbachol]
duration of action (miotic effect) (rabbit eye model [1]; carbachol, even at lowest dose (about 0.075%), rabbit): 2 to 4 h | miotic effect (potency in words) (rabbit eye model [1]; even at the lowest dose / low concentration of about 0.075%, rabbit (FIG. 5)): very potent

Cc1ccc(N(CC2=NCCN2)c2cccc(O)c2)cc1 [Phentolamine]
duration of reduction in pupillary diameter (rabbit eye model [1]; all doses, topical, rabbit (FIG. 1)): at least 6 h | decrease in the pupil (rabbit eye model [1]; at 0.5% and 1%, topical, one drop per eye, rabbit): approximately 1 mm

Br.COc1ccc2c3c1O[C@H]1C[C@@H](O)C=C[C@@]31CCN(C)C2 [Galantamine, galantamine]
decrease in pupil (rabbit eye model [1]; concentration of about 2%, alone, rabbit): 1-2 mm | duration of reduction in pupillary diameter (lasted at least) (rabbit eye model [1]; high dose (2%), rabbit (FIG. 4A)): at least 1 h

Brc1c(N=C2NCCN2)ccc2nccnc12.O=C(O)C(O)C(O)C(=O)O [Brimonidine, 5-Bromo-6-(2-imidazolidinylideneamino) quinoxaline L-tartrate]
miotic effect on pupillary diameter (rabbit eye model [1]; at doses tested, rabbit): little to no effect | miotic effect on pupillary diameter (rabbit eye model [1]; doses at or below 0.1%, rabbit (FIG. 2), L-tartrate): some miotic effect; also recorded: moderate effect | miotic effect on pupillary diameter (rabbit eye model [1]; higher doses tested, at or above 0.2%, rabbit (FIG. 2)): little to no effect

N-Alkyl-N-benzyl-N,N-dimethyl-ammonium chloride [BAC]
effect of BAC on miotic effect of carbachol (rabbit eye model [2]; BAC 0.005%, at 1 hr, higher carbachol concentration (FIG. 6A)): some effect | effect of BAC on miotic effect of carbachol (rabbit eye model [2]; BAC 0.005%, carbachol 0.025%-0.075% (FIG. 6A)): minimal effect | effect of BAC on miotic effect of carbachol (rabbit eye model [2]; BAC 0.01%, carbachol 0.025%-0.075% (FIG. 6B)): somewhat more pronounced | effect of BAC on miotic effect of carbachol (rabbit eye model [2]; BAC at least 0.02%, carbachol 0.025%-0.075% (FIG. 6C)): significant
